Measured values published in ChEMBL document CHEMBL1125330, “N-substituted pyrazino[2,3-c][1,2,6]thiadiazine 2,2-dioxides. A new class of diuretics” (J Med Chem, 1992).

Organism: Rattus norvegicus
Experiment: Mean sodium excretion in rats (Control/Drug treatment value); value 0.42/0.65
Format: ADME, organism-based
Settings: in vivo

- Na: 1.5
SMILES: CCCc1nc2c(nc1C)C(N)=NS(=O)(=O)N2CC
